Some results are limits rather than exact numbers.

By IC50 is commonly meant the point on the concentration scale where inhibition reaches its midpoint. As a reminder, the melting point is the temperature, or range, at which the solid turns liquid.

Data set [1] deals with T1, Recombinant Hepatic Lipase (Homo sapiens, UniProt P11150).
T1 sequence (P11150 23-499): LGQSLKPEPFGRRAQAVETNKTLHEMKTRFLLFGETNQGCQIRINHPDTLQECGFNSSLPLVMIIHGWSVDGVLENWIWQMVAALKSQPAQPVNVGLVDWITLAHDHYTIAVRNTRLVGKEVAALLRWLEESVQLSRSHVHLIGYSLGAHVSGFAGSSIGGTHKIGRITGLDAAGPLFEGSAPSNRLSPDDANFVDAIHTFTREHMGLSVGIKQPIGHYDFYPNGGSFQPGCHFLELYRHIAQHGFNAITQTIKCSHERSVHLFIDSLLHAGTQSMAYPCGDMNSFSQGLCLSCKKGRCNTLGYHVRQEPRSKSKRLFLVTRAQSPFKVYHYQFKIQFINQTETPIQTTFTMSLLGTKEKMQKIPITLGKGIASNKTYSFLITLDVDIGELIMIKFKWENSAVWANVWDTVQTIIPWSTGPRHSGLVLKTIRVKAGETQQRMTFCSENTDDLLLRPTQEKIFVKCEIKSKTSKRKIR
Kind of data set: Hepatic Lipase Phospholipase Assay. It counts as biochemical. The conditions noted are these: ThioPEG substrate, DTNB, 37° C., 10 min preincubation; read-out: Hepatic Lipase Inhibition IC50. Here is the method: Hepatic Lipase Phospholipase Assay
Efficacy was determined by testing various compounds of the invention in a hepatic lipase assay discussed below, and disclosed in U.S. patent application Ser. No. 09/609,871 filed Jul. 3, 2000 incorporated herein by reference in its entirety for U.S. Patent office purposes.
• Substrate Buffer A: 100 mM Hepes, pH 8.3 at 37° C. • Substrate Buffer B: 100 mM Hepes, pH 8.3 at 37° C. with 6.83 mM Triton X100 • ThioPEG: Molecular wt. of 540 • Recombinant Hepatic Lipase • Thiophospholipid: about 0.42 mM thiophospholipid in chloroform • DTNB Solution: about […] DTNB in DMSO (dimethyl sulfoxide) Hepes Buffer A
For Hepes Buffer A, there is 2.4 g Hepes/100 mL water. Therefore 36 grams of Hepes is dissolved in 1500 mL of water. The mix solution's pH is adjusted to pH 8.3 at 37° C. and brought up to 1500 mL with water. 500 mL of Buffer A is retained for the Protein Buffer.
To the remaining 1000 mL of Hepes Buffer A, 4.49 g of Triton X-100 is added and then the combination mixed on a stir plate. It is optimal that stock Buffer A not be too cold or Triton X-100 will take a long time to go into solution
For 0.42 mM substrate stock, use 0.227 mg of thioPEG/mL of Substrate Buffer B. Approximately 20 mg of sn-1 thiol substituted. Phosphatidyl Ethylene Glycol (see Examples for preparation method) is weighed into a vial, such as a scintillation vial. Enough chloroform should be added to make a 2.043 mg/mL solution. Sonicate the solution briefly until well dissolved. Next, pipette 1 mL of chloroform/substrate solution into each scintillation vial. This should give enough substrate for one full 96 well plate. Each vial is dried with nitrogen until solvent removed, swirling each vial simultaneously such that a thin film of substrate will be easily reconstituted in each buffer. Each vial is then frozen.
Daily stock preparation is performed for 9 mL of substrate (one microtiter plate). On the day of the assay, the substrate vial is removed from the freezer and combined with 9 mL of pre-warmed (37° C.) substrate buffer (the final concentration is 0.227 mg/mL). Place the buffer in a 37° C. water bath. Sonicate for 5 minutes or vortex until solution is clear before use.
The enzyme is stored at −80° C. in 100 or 50 μL portions. A 0.406 mg/mL recombinant hepatic lipase stock requires a 50-fold dilution. Therefore, to a 50 μL or 100 μL enzyme aliquot, 2450 μL or 4900 μL, respectively, of substrate Buffer A (protein buffer) should be added. The enzyme should then be stored on ice until ready to use. The protein concentration of enzyme is about 0.406 mg/mL.
To make a 20 mg/mL stock solution, 2-3 mg of DTNB is weighed and then mixed with an appropriate amount of 100% DMSO (dimethyl sulfoxide) to make the desired concentration. This mixture is sonicated for five minutes.
The above solution should be diluted 10 fold with substrate Buffer B (concentration now 2 mg/mL). Then to the thioPEG substrate solution, add 60 μl of dilute DTNB per mL of thioPEG substrate solution. Thus for 9 mL of substrate, 540 microliters of dilute DTNB (final concentration in substrate solution=0.11 mg/mL).
The test compound is dissolved in pure DMSO at […]. As shown below in Table 2, assay concentrations are 10, 1, 0.1, 0.33, 0.011, 0.0037, 0.0012 and 0.00041 μM.
Using a spectrometer, DTNB is used as a thiol coloring reagent with an incubator temperature of 37° C. Substrate Buffer B is placed in a 37° C. water bath to pre-warm. […]

The next data set has as its target T2, endothelial lipase (EL) (Homo sapiens, UniProt Q9Y5X9).
T2 construct: made in house; host or cells: AV12 cells (conditioned media, non-purified)
T2 sequence (Q9Y5X9 21-500): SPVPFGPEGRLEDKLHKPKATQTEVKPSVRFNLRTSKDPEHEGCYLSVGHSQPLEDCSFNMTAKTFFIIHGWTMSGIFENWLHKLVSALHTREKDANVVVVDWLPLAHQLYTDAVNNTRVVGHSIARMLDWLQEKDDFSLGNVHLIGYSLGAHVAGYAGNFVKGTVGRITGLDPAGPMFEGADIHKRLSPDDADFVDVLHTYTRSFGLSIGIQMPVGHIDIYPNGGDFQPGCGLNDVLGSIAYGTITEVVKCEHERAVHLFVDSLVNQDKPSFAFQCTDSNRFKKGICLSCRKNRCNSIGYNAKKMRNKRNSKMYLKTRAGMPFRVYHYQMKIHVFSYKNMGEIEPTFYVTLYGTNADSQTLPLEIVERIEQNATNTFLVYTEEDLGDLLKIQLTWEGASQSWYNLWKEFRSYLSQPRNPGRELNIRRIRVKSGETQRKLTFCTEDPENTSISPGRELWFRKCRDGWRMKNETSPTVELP
Briefly: Endothelial Lipase Inhibition (Thio PEG substrate, conditioned media). To be noted: EL expressed from AV12 cells, 37° C., average of 3 experiments. Format: biochemical. Here is the method: Methods for Characterization of Endothelial Lipase Activity
Hepatic lipase (HL) and endothelial lipase (EL) were expressed from AV12 cells. Aliquots from one day's collection of media were stored at −70° C. Activity was measured for both enzymes in conditioned media, (non-purified) where they were tested on the same plate with Thio PEG substrate (0.06 mol fraction, 7.24 mM total lipid), at 37° C. for 30 minutes. […] The OD for EL at 1× was 6.029. Therefore, when HL was used in studies where it was compared to EL, the HL was at 0.25× and EL was used at 1×. All experiments were done in triplicate with enzyme from conditioned media.
Assay conditions of assay were as follows. Both substrates for EL were run at 0.03 mol fraction, 10 mM total lipid. They were dissolved in 100 mM Hepes with 9.95 mM TX100. Both substrates for HL were run at 0.06 mol fraction and 7.25 mM total lipid. They were dissolved in 100 mM Hepes with 6.83 mM Triton X100. The EL enzyme was used at 1× and the HL enzyme was used at 0.25×. The order of addition was as follows: 10 μL of 10% DMSO, 80 μL of substrate and 10 μL of enzyme. The DMSO and substrate were incubated for 10 minutes at 37° C. before the addition of the enzyme. DTNB was added to the substrate prior to addition to the well at 0.096 mg/mL final plate. concentration. The experiments were performed 3 times. Data represents an average of these.
Several compounds were tested with HL and EL to determine their ability to inhibit these enzymes. Conditions of the assay were as mentioned in the previous paragraph except for the order of addition. In these experiments, the order of addition was 10 μL of drug/control, 10 μL of enzyme followed by a 10 minute incubation at 37° C. This was followed by the addition of the 80 μL of Thio PEG substrate containing DTNB. Each experiment was performed 3 times. Data represents an average.

Regarding `CCCCNC(=O)n1[nH]c2ccccc2c1=O`, in data set [1], the IC50 was determined as 368 ± 15 nM.

In the case of `CCCCNC(=O)n1c(=O)c2ccccc2n1C`, the IC50 in data set [1] is 19 ± 0.4 nM.

In the case of `CCCCCNC(=O)n1c(=O)c2ccccc2n1CCC`, the IC50 in data set [1] was found to be 59.2 ± 1.1 nM.

For `CCCCCNC(=O)n1c(=O)c2ccccc2n1CCc1ccccc1`, the IC50 in data set [1] came to 97.1 ± 1 nM.

For the compound `CCc1ccccc1CNC(=O)n1[nH]c2ccccc2c1=O`, at endothelial lipase (EL), the IC50 came to 11.4 ± 5.17 nM.

For the compound `O=C(NCc1ccccc1)n1[nH]c2ccccc2c1=O`, at endothelial lipase (EL), half-maximal inhibition (IC50) was put at 73.8 ± 26.2 nM.

For the compound `O=C(NCc1ccc2c(c1)OCO2)n1[nH]c2ccccc2c1=O`, on endothelial lipase (EL), 45.1 ± 27.5 nM corresponded to half-maximal inhibition (IC50).

The compound `O=C(NCc1csc2ccccc12)n1[nH]c2ccccc2c1=O` displayed an IC50 against endothelial lipase (EL) of 13.2 ± 2.83 nM.

As to `CCc1cccc(C)c1CNC(=O)n1c(=O)c2cccc(C(=O)O)c2n1CC(=O)OC` [Example 83, 2-(2-Ethyl-6-methyl-benzylcarbamoyl)-1-methoxycarbonylmethyl-3-oxo-2,3-dihydro-1H-indazole-7-carboxylic acid], the melting point is 220 to 222 °C.

Turning to `Cc1cccc(C(C)(C)C)c1CNC(=O)n1c(=O)c2cccc(C(=O)O)c2n1C` [Example 97, 2-(2-tert-Butyl-6-methyl-benzylcarbamoyl)-1-methyl-3-oxo-2,3-dihydro-1H-indazole-7-carboxylic acid], the melting point was above 250 °C.

For the compound `CCc1cccc(CC)c1CNC(=O)n1c(=O)c2cccc(C(=O)O)c2n1C` [Example 98, 2-(2,6-Diethyl-benzylcarbamoyl)-1-methyl-3-oxo-2,3-dihydro-1H-indazole-7-carboxylic acid], the melting point is above 250 °C.

The compound `CCCCCCNC(=O)n1[nH]c2cccc(C(=O)OC)c2c1=O` [Example 99, 2-Hexylcarbamoyl-3-oxo-2,3-dihydro-1H-indazole4-carboxylic acid methyl ester] came in with a melting point of 63 to 65 °C.

On to `C=CCOC(=O)c1cccc2[nH]n(C(=O)NCCCCCC)c(=O)c12` [Example 100, 2-Hexylcarbamoyl-3-oxo-2,3-dihydro-1H-indazole-4-carboxylic acid allyl ester], for which the melting point was 67 to 69 °C.

`CCCCCNC(=O)n1[nH]c2ccccc2c1=O` [drawing 15]: the IC50 in data set [1] is 67.2 ± 3.2 nM.

Values taken from patent US20060211755A1, “3-oxo-1, 3-dihydro-indazole-2-carboxylic acid amide derivatives as phospholipase inhibitors” (Eli Lilly and Company Patent Division, priority 2003, published 2006).
